Our source for the AC50, fold change (FC) and Activity values is ChEMBL document CHEMBL1240408, “Turning enzymes ON with small molecules” (Nat Chem Biol, 2010).

The term AC50 denotes the concentration at which the activity in the assay is half-maximal.

Experiment [1] is described as follows: (§1) Activation of rat liver AMPK assessed as concentration required to induce 50 % activity.
The next experiment concerns the target T1, Caspase-3 (Homo sapiens) (UniProt P42574).
T1 sequence (whole entry): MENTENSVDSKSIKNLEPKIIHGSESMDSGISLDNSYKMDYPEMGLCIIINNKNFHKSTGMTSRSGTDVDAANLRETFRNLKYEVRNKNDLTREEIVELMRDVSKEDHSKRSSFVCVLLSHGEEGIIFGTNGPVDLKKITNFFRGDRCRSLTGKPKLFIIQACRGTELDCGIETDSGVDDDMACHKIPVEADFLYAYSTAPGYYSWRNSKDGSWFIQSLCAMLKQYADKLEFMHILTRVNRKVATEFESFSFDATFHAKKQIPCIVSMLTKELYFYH
Nature of the experiment: Induction of autoactivation of procaspase-3 relative to control.

The species entered for experiment [2] is Rattus norvegicus. In words: Activation of rat liver AMPK relative to basal activity level. The format is tissue-based.
For experiment [3], the species on record is Rattus norvegicus. The description is as §1.
The species entered for experiment [4] is Rattus norvegicus. In words: Activation of rat liver AMPK alpha subunit assessed as concentration required to induce 50 % activity.

Take `Nc1ncnc2c1ncn2[C@@H]1O[C@H](COP(=O)(O)O)[C@@H](O)[C@H]1O` [ADENOSINE PHOSPHATE]: the concentration at half-maximal activity (AC50) in experiment [1] is 56 µM.

For `C=CCc1cccc(/C=N/NC(=O)CN2CCN(Cc3ccccc3)CC2)c1O`, at Caspase-3 (Homo sapiens), the fold change (FC) amounted to 3. `Cc1cc(-c2ccc(/C=C3\S/C(=N\c4ccc(Cl)c(C(=O)O)c4)NC3=O)o2)c([N+](=O)[O-])cc1C` returned a fold change (FC) in the experiment listed under Rattus norvegicus [2] of 1.5. Moreover, the Activity is 0.3 µM in the experiment filed under Rattus norvegicus [3] and 8 µM in the experiment listed under Rattus norvegicus [4].

As to `N#Cc1c(O)c2c(-c3ccc(-c4ccccc4O)cc3)csc2[nH]c1=O`, the Activity in the experiment filed under Rattus norvegicus [3] amounted to 0.8 µM.
